Species on record: Rattus norvegicus
Assay: Open TG-GATES - Regimen: Daily Repeat
Type: toxicity, organism-based, Sprague-Dawley
Parameters: regimen Daily Repeat, gender Male, age 6 weeks
Details: in vivo, po, route gavage; for TG / TP / gamma-GTP / ALP / ALT / CRE / DBIL / GLC / IP / K / LDH / Na / PL / RALB / TBIL / TC / BUN: tissue Plasma
[1] = 60 mg/kg, […], dose level Low, time 28 day
[2] = 200 mg/kg, 72 h, dose level Middle, time 3 day
[3] = 200 mg/kg, 72 h, tissue Blood, dose level Middle, time 3 day
[4] = 200 mg/kg, […], dose level Middle, time 7 day
[5] = 200 mg/kg, […], dose level Middle, time 14 day
[6] = 200 mg/kg, […], dose level Middle, time 28 day
[7] = 200 mg/kg, […], tissue Blood, dose level Middle, time 7 day
[8] = 200 mg/kg, […], tissue Blood, dose level Middle, time 14 day
[9] = 200 mg/kg, […], tissue Blood, dose level Middle, time 28 day
[10] = 600 mg/kg, 72 h, dose level High, time 3 day
[11] = 600 mg/kg, 72 h, tissue Blood, dose level High, time 3 day
[12] = 600 mg/kg, […], dose level High, time 7 day
[13] = 600 mg/kg, […], dose level High, time 14 day
[14] = 600 mg/kg, […], dose level High, time 28 day
[15] = 600 mg/kg, […], tissue Blood, dose level High, time 7 day
[16] = 600 mg/kg, […], tissue Blood, dose level High, time 14 day
[17] = 600 mg/kg, […], tissue Blood, dose level High, time 28 day

## CCN(CC)C(=S)SSC(=S)N(CC)CC
[1]
  TG: 67.8 mg/dL
  TP: 5.9 g/dL
  gamma-GTP: 1.8 IU/L
[2]
  TERMINAL_BW: 218.6 g
  ALP: 878 IU/L
  ALT: 45 IU/L
  CRE: 0.2 mg/dL
  DBIL: 0.008 mg/dL
  GLC: 170.6 mg/dL
  IP: 7 mg/dL
  K: 4.1 meq/L
  LDH: 195.4 IU/L
  Na: 144 meq/L
  PL: 189.4 mg/dL
  RALB: 3.1 g/dL
  TBIL: 0.014 mg/dL
  TC: 117.8 mg/dL
  TG: 54.8 mg/dL
  TP: 5.6 g/dL
  gamma-GTP: 1.2 IU/L
[3]
  APTT: 22.4 s
  Bas: 0%
  Eos: 1%
  Fbg: 344.8 mg/dL
  Hb: 12.4 g/dL
  Ht: 37.6%
  MCH: 19.7 pg
  MCHC: 32.9%
  MCV: 60 fL
  Mono: 2.2%
  PT: 15.7 s
  Plat: 109.9 x10_4/uL
  RBC: 627.2 x10_4/ul
  Ret: 4.6%
  WBC: 80.4 x10_2/uL
[4]
  TERMINAL_BW: 250.3 g
  ALP: 989.4 IU/L
  ALT: 46 IU/L
  BUN: 18.2 mg/dL
  CRE: 0.2 mg/dL
  DBIL: 0 mg/dL
  GLC: 173.2 mg/dL
  IP: 6.6 mg/dL
  K: 4.3 meq/L
  LDH: 195 IU/L
  Na: 143 meq/L
  PL: 171 mg/dL
  RALB: 3.1 g/dL
  TBIL: 0.006 mg/dL
  TG: 38.2 mg/dL
  TP: 5.8 g/dL
  gamma-GTP: 1.6 IU/L
[5]
  TERMINAL_BW: 290.7 g
  ALP: 989.6 IU/L
  ALT: 38.8 IU/L
  BUN: 22.2 mg/dL
  CRE: 0.2 mg/dL
  DBIL: 0 mg/dL
  GLC: 172.6 mg/dL
  IP: 6.4 mg/dL
  K: 4.2 meq/L
  LDH: 126.6 IU/L
  Na: 142 meq/L
  PL: 181 mg/dL
  RALB: 3.2 g/dL
  TBIL: 0.014 mg/dL
  TC: 104 mg/dL
  TG: 41.2 mg/dL
  TP: 6 g/dL
  gamma-GTP: 3 IU/L
[6]
  TERMINAL_BW: 357.8 g
  ALP: 809.6 IU/L
  ALT: 37.2 IU/L
  BUN: 21.2 mg/dL
  CRE: 0.2 mg/dL
  DBIL: 0 mg/dL
  GLC: 165.8 mg/dL
  IP: 6 mg/dL
  K: 4 meq/L
  LDH: 132 IU/L
  Na: 142 meq/L
  PL: 188 mg/dL
  RALB: 3.3 g/dL
  TBIL: 0.026 mg/dL
  TC: 118 mg/dL
  TG: 38 mg/dL
  TP: 6.4 g/dL
  gamma-GTP: 2.4 IU/L
[7]
  APTT: 20.7 s
  Bas: 0%
  Eos: 1%
  Fbg: 349.8 mg/dL
  Hb: 12.3 g/dL
  Ht: 37.8%
  MCH: 20.2 pg
  MCHC: 32.7%
  MCV: 61.8 fL
  Mono: 2.4%
  PT: 16.3 s
  Plat: 130.6 x10_4/uL
  RBC: 611 x10_4/ul
  Ret: 7.1%
  WBC: 101.3 x10_2/uL
[8]
  APTT: 23.3 s
  Bas: 0%
  Eos: 1%
  Fbg: 348.6 mg/dL
  Hb: 13.6 g/dL
  Ht: 39.4%
  MCH: 20 pg
  MCHC: 34.5%
  MCV: 58 fL
  Mono: 2.4%
  PT: 16.1 s
  RBC: 679.6 x10_4/ul
  Ret: 5.2%
  WBC: 99.9 x10_2/uL
[9]
  APTT: 24.5 s
  Bas: 0%
  Eos: 1.4%
  Fbg: 385.6 mg/dL
  Hb: 14.2 g/dL
  Ht: 40.9%
  MCH: 19 pg
  MCHC: 34.8%
  MCV: 54.7 fL
  Mono: 2%
  Neu: 16%
  PT: 16.3 s
  Plat: 100.5 x10_4/uL
  RBC: 748.8 x10_4/ul
  Ret: 4%
  WBC: 118.2 x10_2/uL
[10]
  TERMINAL_BW: 211.3 g
  ALP: 963 IU/L
  ALT: 47.6 IU/L
  CRE: 0.1 mg/dL
  DBIL: 0.02 mg/dL
  GLC: 162 mg/dL
  IP: 7.7 mg/dL
  K: 3.7 meq/L
  LDH: 341.6 IU/L
  Na: 144 meq/L
  PL: 212.8 mg/dL
  RALB: 3 g/dL
  TBIL: 0.018 mg/dL
  TC: 147.4 mg/dL
  TG: 29.4 mg/dL
  TP: 5.8 g/dL
  gamma-GTP: 1.4 IU/L
[11]
  APTT: 23.3 s
  Bas: 0%
  Eos: 0.6%
  Fbg: 405.6 mg/dL
  Hb: 12.6 g/dL
  Ht: 37.8%
  MCH: 20.2 pg
  MCHC: 33.3%
  MCV: 60.9 fL
  Mono: 2.4%
  PT: 15.5 s
  Plat: 118.3 x10_4/uL
  RBC: 623 x10_4/ul
  Ret: 4.4%
  WBC: 61.8 x10_2/uL
[12]
  TERMINAL_BW: 217.6 g
  ALP: 563.5 IU/L
  ALT: 41.8 IU/L
  BUN: 17.5 mg/dL
  CRE: 0.2 mg/dL
  DBIL: 0.0275 mg/dL
  GLC: 147.5 mg/dL
  IP: 7.2 mg/dL
  K: 4.3 meq/L
  LDH: 354.2 IU/L
  Na: 145.2 meq/L
  PL: 201 mg/dL
  RALB: 2.9 g/dL
  TBIL: 0.025 mg/dL
  TG: 16.5 mg/dL
  TP: 5.8 g/dL
  gamma-GTP: 2.5 IU/L
[13]
  TERMINAL_BW: 270 g
  ALP: 1017.2 IU/L
  ALT: 34 IU/L
  BUN: 21 mg/dL
  CRE: 0.2 mg/dL
  DBIL: 0.004 mg/dL
  GLC: 161.2 mg/dL
  IP: 6.9 mg/dL
  K: 4.1 meq/L
  LDH: 173.8 IU/L
  Na: 142.8 meq/L
  PL: 178.8 mg/dL
  RALB: 3.3 g/dL
  TBIL: 0.024 mg/dL
  TC: 109.4 mg/dL
  TG: 29.2 mg/dL
  TP: 6.2 g/dL
  gamma-GTP: 2.8 IU/L
[14]
  TERMINAL_BW: 304.2 g
  ALP: 651.8 IU/L
  ALT: 34.2 IU/L
  BUN: 19.6 mg/dL
  CRE: 0.2 mg/dL
  DBIL: 0.014 mg/dL
  GLC: 156.8 mg/dL
  IP: 6.1 mg/dL
  K: 3.8 meq/L
  LDH: 159.2 IU/L
  Na: 143 meq/L
  PL: 166.6 mg/dL
  RALB: 3.2 g/dL
  TBIL: 0.044 mg/dL
  TC: 112.4 mg/dL
  TG: 16.2 mg/dL
  TP: 6.4 g/dL
  gamma-GTP: 2.8 IU/L
[15]
  APTT: 25.8 s
  Bas: 0%
  Eos: 0.5%
  Fbg: 408.2 mg/dL
  Hb: 13.4 g/dL
  Ht: 40%
  Lym: 64.8%
  MCH: 19.7 pg
  MCHC: 33.5%
  MCV: 58.8 fL
  Mono: 5%
  Neu: 28.8%
  PT: 18.8 s
  Plat: 130.8 x10_4/uL
  RBC: 681.5 x10_4/ul
  Ret: 4.8%
  WBC: 88.4 x10_2/uL
[16]
  APTT: 22.8 s
  Bas: 0%
  Eos: 1%
  Fbg: 377.4 mg/dL
  Hb: 13.4 g/dL
  Ht: 38.3%
  MCH: 19.6 pg
  MCHC: 35%
  MCV: 55.9 fL
  Mono: 2.4%
  Neu: 22.6%
  PT: 16.8 s
  RBC: 683.8 x10_4/ul
  Ret: 5.7%
  WBC: 85.1 x10_2/uL
[17]
  APTT: 20.8 s
  Bas: 0%
  Eos: 1%
  Fbg: 382.2 mg/dL
  Hb: 13.4 g/dL
  Ht: 38.9%
  MCH: 18.9 pg
  MCHC: 34.5%
  MCV: 54.9 fL
  Mono: 2.6%
  Neu: 17.8%
  PT: 17.4 s
  Plat: 99.3 x10_4/uL
  RBC: 708.2 x10_4/ul
  Ret: 4.8%
  WBC: 98.6 x10_2/uL

— ChEMBL document CHEMBL3885861, “Open TG-GATES”
